Like-named read-outs stand apart in the source and are kept apart here.
Columns and labels:
Test in all cases: biochemical
Design in all cases: KINOMEscan active site-directed competition binding assay (DiscoveRx), 456 kinases, per cent of control at 300 nM
Details in all cases: read-out: Percent of Control (%)
NEK5 = NEK5 (Homo sapiens, UniProt Q6P3R8)
Outline: (§1)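 Kinase panel (456 enzymes) profiled by competitive displacement at the active site; compounds run at 300 nmol/L.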

FGFR1 = FGFR1 (Homo sapiens, UniProt P11362)
Outline: as §1

DDR1 = DDR1 (Homo sapiens, UniProt Q08345)
Outline: as §1

EPHB6 = EPHB6 (Homo sapiens, UniProt O15197)
Outline: as §1

CAMK2A = CAMK2A (Homo sapiens, UniProt Q9UQM7)
Outline: as §1

ADCK4 = biological target: T1, ADCK4 (Homo sapiens, UniProt Q96D53)
T1 construct: gene COQ8B
Outline: as §1

MEK4 = biological target: T2, MEK4 (Homo sapiens, UniProt P45985)
T2 construct: gene MAP2K4
Outline: as §1

AKT2 = AKT2 (Homo sapiens, UniProt P31751)
Outline: as §1

CSF1R = CSF1R (Homo sapiens, UniProt P07333)
Outline: as §1

RIOK3 = RIOK3 (Homo sapiens, UniProt O14730)
Outline: as §1

[1] = biological target: EGFR(L747-E749del, A750P) (Homo sapiens, UniProt P00533, A750P/DEL747-749)
Outline: as §1

NLK = NLK (Homo sapiens, UniProt Q9UBE8)
Outline: as §1

STK39 = STK39 (Homo sapiens, UniProt Q9UEW8)
Outline: as §1

CDK4-cyclinD1 = biological target: T3, CDK4-cyclinD1 (Homo sapiens, UniProt P11802)
T3 construct: cyclinD1
Outline: as §1

MLK3 = biological target: T4, MLK3 (Homo sapiens, UniProt Q16584)
T4 construct: gene MAP3K11
Outline: as §1

PIM2 = PIM2 (Homo sapiens, UniProt Q9P1W9)
Outline: as §1

GRK4 = GRK4 (Homo sapiens, UniProt P32298)
Outline: as §1

MAK = MAK (Homo sapiens, UniProt P20794)
Outline: as §1

EPHA5 = EPHA5 (Homo sapiens, UniProt P54756)
Outline: as §1

AURKB = AURKB (Homo sapiens, UniProt Q96GD4)
Outline: as §1

LIMK1 = LIMK1 (Homo sapiens, UniProt P53667)
Outline: as §1

SLK = SLK (Homo sapiens, UniProt Q9H2G2)
Outline: as §1

Sequence of PIM2 (Q9P1W9 whole entry): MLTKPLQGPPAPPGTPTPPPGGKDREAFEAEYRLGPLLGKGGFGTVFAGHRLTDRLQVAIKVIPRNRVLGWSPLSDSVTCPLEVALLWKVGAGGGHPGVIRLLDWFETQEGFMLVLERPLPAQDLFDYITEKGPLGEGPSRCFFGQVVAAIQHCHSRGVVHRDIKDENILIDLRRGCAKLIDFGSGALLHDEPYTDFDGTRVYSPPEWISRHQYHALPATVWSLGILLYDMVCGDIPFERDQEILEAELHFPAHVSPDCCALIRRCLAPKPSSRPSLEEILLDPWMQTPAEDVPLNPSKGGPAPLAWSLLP
Sequence of LIMK1 (P53667 whole entry): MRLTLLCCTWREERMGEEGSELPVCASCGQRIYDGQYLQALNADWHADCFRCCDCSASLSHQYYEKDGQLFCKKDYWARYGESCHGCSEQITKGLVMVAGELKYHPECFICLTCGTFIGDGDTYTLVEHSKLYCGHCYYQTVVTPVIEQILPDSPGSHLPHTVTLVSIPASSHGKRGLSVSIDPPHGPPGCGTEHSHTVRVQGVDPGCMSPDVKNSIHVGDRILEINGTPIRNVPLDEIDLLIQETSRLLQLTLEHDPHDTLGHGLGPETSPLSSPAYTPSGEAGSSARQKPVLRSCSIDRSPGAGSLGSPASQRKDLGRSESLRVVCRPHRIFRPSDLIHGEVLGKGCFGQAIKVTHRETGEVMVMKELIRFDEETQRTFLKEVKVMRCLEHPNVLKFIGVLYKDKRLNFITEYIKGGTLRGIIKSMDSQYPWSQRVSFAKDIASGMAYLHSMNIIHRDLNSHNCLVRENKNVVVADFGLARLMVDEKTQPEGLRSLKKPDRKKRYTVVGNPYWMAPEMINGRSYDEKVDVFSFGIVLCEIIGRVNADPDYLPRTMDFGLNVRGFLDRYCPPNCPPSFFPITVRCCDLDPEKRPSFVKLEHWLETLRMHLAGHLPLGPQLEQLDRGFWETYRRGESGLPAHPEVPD
Sequence of CSF1R (P07333 whole entry): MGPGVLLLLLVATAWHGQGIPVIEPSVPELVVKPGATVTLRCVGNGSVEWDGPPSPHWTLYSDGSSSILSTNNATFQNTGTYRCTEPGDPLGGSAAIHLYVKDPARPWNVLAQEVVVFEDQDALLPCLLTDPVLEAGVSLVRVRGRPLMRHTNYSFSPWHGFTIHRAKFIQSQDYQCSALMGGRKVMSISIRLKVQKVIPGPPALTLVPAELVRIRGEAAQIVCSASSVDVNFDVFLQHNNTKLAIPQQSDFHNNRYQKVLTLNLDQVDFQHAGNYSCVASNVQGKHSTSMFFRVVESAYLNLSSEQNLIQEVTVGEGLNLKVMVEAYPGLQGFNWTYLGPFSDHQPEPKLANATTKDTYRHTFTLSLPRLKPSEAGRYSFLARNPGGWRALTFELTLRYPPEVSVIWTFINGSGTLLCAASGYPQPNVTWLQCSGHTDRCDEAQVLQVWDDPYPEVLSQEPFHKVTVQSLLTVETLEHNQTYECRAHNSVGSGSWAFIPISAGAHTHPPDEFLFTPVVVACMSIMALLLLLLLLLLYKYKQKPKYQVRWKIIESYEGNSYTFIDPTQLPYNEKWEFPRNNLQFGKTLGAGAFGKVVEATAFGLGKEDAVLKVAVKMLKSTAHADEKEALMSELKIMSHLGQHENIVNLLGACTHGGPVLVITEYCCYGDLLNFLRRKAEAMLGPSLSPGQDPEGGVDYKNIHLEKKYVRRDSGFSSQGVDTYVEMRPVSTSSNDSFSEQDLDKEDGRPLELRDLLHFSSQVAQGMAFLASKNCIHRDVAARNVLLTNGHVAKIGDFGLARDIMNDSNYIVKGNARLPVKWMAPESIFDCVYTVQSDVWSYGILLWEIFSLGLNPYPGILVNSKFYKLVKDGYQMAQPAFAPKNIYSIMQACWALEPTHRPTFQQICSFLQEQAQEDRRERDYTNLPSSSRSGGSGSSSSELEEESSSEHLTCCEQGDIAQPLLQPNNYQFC
Sequence of EGFR(L747-E749del, A750P) (P00533 with tags, fused parts or gaps DEL747-749/A750P): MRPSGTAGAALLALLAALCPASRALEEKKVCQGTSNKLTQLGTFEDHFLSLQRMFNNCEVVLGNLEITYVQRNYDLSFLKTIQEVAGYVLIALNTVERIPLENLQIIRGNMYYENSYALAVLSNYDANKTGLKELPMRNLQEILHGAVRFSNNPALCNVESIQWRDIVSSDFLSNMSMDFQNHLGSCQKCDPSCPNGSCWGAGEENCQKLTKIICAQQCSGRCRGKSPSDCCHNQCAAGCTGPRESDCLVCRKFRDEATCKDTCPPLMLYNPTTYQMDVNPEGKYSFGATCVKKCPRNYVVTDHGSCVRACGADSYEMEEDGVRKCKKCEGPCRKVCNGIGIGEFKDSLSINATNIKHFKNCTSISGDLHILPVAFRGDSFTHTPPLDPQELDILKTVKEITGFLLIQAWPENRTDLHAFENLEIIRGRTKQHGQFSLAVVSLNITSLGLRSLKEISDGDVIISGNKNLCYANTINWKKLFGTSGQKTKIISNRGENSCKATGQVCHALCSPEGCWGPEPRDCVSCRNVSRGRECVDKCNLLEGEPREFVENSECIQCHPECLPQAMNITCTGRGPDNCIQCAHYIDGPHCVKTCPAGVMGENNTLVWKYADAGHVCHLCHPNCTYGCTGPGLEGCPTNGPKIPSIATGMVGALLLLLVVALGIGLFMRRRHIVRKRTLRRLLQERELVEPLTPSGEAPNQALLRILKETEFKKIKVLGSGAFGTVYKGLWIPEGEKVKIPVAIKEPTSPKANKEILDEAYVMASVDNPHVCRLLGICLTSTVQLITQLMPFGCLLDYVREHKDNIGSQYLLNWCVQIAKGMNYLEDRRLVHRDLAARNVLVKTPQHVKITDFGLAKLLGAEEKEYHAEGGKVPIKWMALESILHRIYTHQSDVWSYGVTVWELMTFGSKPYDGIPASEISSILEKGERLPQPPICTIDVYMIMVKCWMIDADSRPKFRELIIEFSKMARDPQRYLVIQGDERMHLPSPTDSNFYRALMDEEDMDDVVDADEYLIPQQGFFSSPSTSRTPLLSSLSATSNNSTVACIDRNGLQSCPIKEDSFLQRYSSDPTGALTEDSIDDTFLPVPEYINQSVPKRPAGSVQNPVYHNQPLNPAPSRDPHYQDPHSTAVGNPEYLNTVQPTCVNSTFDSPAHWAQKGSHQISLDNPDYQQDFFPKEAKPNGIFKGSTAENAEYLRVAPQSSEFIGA
Sequence of EPHA5 (P54756 whole entry): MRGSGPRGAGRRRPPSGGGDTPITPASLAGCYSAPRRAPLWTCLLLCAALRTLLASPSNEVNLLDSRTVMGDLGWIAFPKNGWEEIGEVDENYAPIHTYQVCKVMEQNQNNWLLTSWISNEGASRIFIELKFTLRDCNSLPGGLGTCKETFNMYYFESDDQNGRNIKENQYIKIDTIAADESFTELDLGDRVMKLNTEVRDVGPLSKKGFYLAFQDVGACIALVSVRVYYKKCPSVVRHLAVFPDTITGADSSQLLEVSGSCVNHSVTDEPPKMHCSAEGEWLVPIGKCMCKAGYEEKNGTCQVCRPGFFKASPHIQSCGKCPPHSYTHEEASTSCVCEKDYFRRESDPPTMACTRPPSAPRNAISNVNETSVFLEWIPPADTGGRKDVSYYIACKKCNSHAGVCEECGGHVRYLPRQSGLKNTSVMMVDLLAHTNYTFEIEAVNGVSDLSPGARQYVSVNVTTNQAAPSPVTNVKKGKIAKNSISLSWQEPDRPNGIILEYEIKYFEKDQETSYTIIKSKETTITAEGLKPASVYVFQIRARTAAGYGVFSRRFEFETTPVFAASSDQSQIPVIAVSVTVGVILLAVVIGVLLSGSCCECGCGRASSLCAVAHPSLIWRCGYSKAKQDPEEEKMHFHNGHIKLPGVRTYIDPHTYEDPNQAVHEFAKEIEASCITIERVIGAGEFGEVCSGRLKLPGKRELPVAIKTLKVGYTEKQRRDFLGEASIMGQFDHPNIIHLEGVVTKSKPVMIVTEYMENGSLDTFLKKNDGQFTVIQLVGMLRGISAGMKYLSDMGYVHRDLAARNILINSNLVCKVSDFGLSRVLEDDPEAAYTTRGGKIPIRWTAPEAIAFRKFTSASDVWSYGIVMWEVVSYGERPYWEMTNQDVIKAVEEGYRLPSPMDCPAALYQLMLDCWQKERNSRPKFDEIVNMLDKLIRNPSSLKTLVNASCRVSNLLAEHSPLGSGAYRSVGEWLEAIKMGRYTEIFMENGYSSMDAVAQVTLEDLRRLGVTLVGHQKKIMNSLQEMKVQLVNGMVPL
Sequence of CAMK2A (Q9UQM7 whole entry): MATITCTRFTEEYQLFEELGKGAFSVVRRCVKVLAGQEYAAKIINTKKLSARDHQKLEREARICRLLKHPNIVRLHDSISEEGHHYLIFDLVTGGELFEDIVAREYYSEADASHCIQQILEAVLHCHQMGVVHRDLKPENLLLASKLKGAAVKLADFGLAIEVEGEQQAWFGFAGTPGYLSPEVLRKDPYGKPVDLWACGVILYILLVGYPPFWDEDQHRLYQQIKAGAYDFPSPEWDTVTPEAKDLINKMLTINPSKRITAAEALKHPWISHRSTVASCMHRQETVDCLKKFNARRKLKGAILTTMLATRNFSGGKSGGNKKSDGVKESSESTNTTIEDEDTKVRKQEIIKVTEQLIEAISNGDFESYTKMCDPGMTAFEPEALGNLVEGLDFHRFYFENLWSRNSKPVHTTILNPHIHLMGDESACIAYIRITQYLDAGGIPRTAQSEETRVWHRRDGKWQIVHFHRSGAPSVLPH
Sequence of AURKB (Q96GD4 whole entry): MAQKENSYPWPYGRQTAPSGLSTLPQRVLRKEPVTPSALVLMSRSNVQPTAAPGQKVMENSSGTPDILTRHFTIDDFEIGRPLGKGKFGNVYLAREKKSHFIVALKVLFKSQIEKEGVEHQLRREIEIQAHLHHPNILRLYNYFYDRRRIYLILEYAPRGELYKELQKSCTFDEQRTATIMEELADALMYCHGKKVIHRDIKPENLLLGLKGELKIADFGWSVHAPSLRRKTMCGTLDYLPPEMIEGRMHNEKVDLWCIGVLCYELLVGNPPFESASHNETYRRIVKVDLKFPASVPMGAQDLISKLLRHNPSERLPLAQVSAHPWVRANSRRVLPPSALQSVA

SMILES: Cc1ncccc1Oc1sc(C(N)=O)c2c1-c1c(cnn1C)CC2 [T-474, 1-methyl-8-((2-methylpyridin-3-yl)oxy)-4,5-dihydro-1H-thieno[3,4-g]indazole-6-carboxamide]
- remaining binding at 0.3 µM (NEK5): 100%
- remaining binding at 0.3 µM (FGFR1): 95%
- remaining binding at 0.3 µM (DDR1): 100%
- remaining binding at 0.3 µM (EPHB6): 86%
- remaining binding at 0.3 µM (CAMK2A): 97%
- remaining binding at 0.3 µM (ADCK4): 92%
- remaining binding at 0.3 µM (MEK4): 100%
- remaining binding at 0.3 µM (AKT2): 100%
- remaining binding at 0.3 µM (CSF1R): 100%
- remaining binding at 0.3 µM (RIOK3): 74%
- remaining binding at 0.3 µM [1]: 68%
- remaining binding at 0.3 µM (NLK): 100%
- remaining binding at 0.3 µM (STK39): 100%
- remaining binding at 0.3 µM (CDK4-cyclinD1): 95%
- remaining binding at 0.3 µM (MLK3): 97%
- remaining binding at 0.3 µM (PIM2): 80%
- remaining binding at 0.3 µM (GRK4): 100%
- remaining binding at 0.3 µM (MAK): 98%
- remaining binding at 0.3 µM (EPHA5): 98%
- remaining binding at 0.3 µM (AURKB): 100%
- remaining binding at 0.3 µM (LIMK1): 100%
- remaining binding at 0.3 µM (SLK): 100%

SMILES: O=C(/C=C/c1cnccc1-c1ccc(F)cc1)Nc1ccc(CCc2nnco2)cc1 [T-418, (2E)-3-(4-(4-fluorophenyl)pyridin-3-yl)-N-(4-(2-(1,3,4-oxadiazol-2-yl)ethyl)phenyl)acrylamide]
- remaining binding at 0.3 µM (NEK5; sheet T-418): 100%
- remaining binding at 0.3 µM (FGFR1; sheet T-418): 100%
- remaining binding at 0.3 µM (DDR1; sheet T-418): 100%
- remaining binding at 0.3 µM (EPHB6; sheet T-418): 93%
- remaining binding at 0.3 µM (CAMK2A; sheet T-418): 96%
- remaining binding at 0.3 µM (ADCK4; sheet T-418): 91%
- remaining binding at 0.3 µM (MEK4; sheet T-418): 100%
- remaining binding at 0.3 µM (AKT2; sheet T-418): 100%
- remaining binding at 0.3 µM (CSF1R; sheet T-418): 81%
- remaining binding at 0.3 µM (RIOK3; sheet T-418): 78%
- remaining binding at 0.3 µM ([1]; sheet T-418): 58%
- remaining binding at 0.3 µM (NLK; sheet T-418): 98%
- remaining binding at 0.3 µM (STK39; sheet T-418): 100%
- remaining binding at 0.3 µM (CDK4-cyclinD1; sheet T-418): 91%
- remaining binding at 0.3 µM (MLK3; sheet T-418): 94%
- remaining binding at 0.3 µM (PIM2; sheet T-418): 89%
- remaining binding at 0.3 µM (GRK4; sheet T-418): 100%
- remaining binding at 0.3 µM (MAK; sheet T-418): 100%
- remaining binding at 0.3 µM (EPHA5; sheet T-418): 96%
- remaining binding at 0.3 µM (AURKB; sheet T-418): 100%
- remaining binding at 0.3 µM (LIMK1; sheet T-418): 100%
- remaining binding at 0.3 µM (SLK; sheet T-418): 100%
